Measurements from PubChem BioAssay AID1745844 (Carcinogenic Potency Database (CPDB), 2022).
Active and inactive are the calls of the source. The rule behind the calls is not given here.

Tested on: rodent lifetime carcinogenesis bioassay, tumor incidence TD50
Assay: chronic cancer bioassays in animals – CPDB, compiled studies (AID 1745844)

CN(C)CCN(Cc1cccs1)c1ccccn1
TD50 (hamster, strain Syrian Golden, males, by gavage, site: liver, lesion: neoplastic nodule, dosed 58 weeks, study length 61 weeks): 150 mg/kg/day | TD50 (rat, strain Fischer 344, females, in feed, site: liver, lesion: hepatocellular carcinoma, dosed 110 weeks, study length 133 weeks): 61.6 mg/kg/day | TD50 (rat, strain Fischer 344, females, in feed, site: liver, lesion: neoplastic nodule, dosed 110 weeks, study length 133 weeks): 11.8 mg/kg/day | TD50 (rat, strain Fischer 344, females, in feed, site: liver, lesion: several types, types named in the paper, dosed 110 weeks, study length 133 weeks): 7.65 mg/kg/day | carcinogen call (rat, strain Fischer 344, males, in feed, site: liver, lesion: basophil adenoma, dosed 73 weeks, study length 73 weeks): positive | TD50 (rat, strain Fischer 344, males, in feed, site: liver, lesion: cholangiocarcinoma, dosed 110 weeks, study length 133 weeks): 400 mg/kg/day | carcinogen call (rat, strain Fischer 344, males, in feed, site: liver, lesion: eosinophilic adenoma, dosed 73 weeks, study length 73 weeks): positive | TD50 (rat, strain Fischer 344, males, in feed, site: liver, lesion: hepatocellular carcinoma, solid, dosed 73 weeks, study length 73 weeks): 26.4 mg/kg/day | TD50 (rat, strain Fischer 344, males, in feed, site: liver, lesion: hepatocellular carcinoma, trabecular, dosed 73 weeks, study length 73 weeks): 26.4 mg/kg/day | TD50 (rat, strain Fischer 344, males, in feed, site: liver, lesion: hepatocellular carcinoma, dosed 73 weeks, study length 73 weeks): 14.7 mg/kg/day | TD50 (rat, strain Fischer 344, males, in feed, site: liver, lesion: hepatocellular carcinoma, dosed 110 weeks, study length 133 weeks): 77 mg/kg/day | TD50 (rat, strain Fischer 344, males, in feed, site: liver, lesion: neoplastic nodule, dosed 110 weeks, study length 133 weeks): 11.1 mg/kg/day | TD50 (rat, strain Fischer 344, males, in feed, site: liver, lesion: several types, types named in the paper, dosed 110 weeks, study length 133 weeks): 7.7 mg/kg/day

CCCCN(CCCC)C(=S)[S-].CCCCN(CCCC)C(=S)[S-].[Zn+2]
TD50 (mouse, strain B6AKF1, females, oral dosing, site: any site (literature study), lesion: several types, types named in the paper, dosed 76 weeks, study length 76 weeks): 2330 mg/kg/day (inactive) | carcinogen call (mouse, strain B6AKF1, females, oral dosing, site: liver, lesion: hepatoma, dosed 76 weeks, study length 76 weeks): negative (inactive) | TD50 (mouse, strain B6AKF1, females, oral dosing, site: lung, lesion: adenoma, dosed 76 weeks, study length 76 weeks): 1090 mg/kg/day (inactive) | carcinogen call (mouse, strain B6AKF1, males, oral dosing, site: any site (literature study), lesion: several types, types named in the paper, dosed 76 weeks, study length 76 weeks): negative (inactive) | carcinogen call (mouse, strain B6AKF1, males, oral dosing, site: liver, lesion: hepatoma, dosed 76 weeks, study length 76 weeks): negative (inactive) | carcinogen call (mouse, strain B6AKF1, males, oral dosing, site: lung, lesion: adenoma, dosed 76 weeks, study length 76 weeks): negative (inactive) | TD50 (mouse, strain B6C3F1, females, oral dosing, site: any site (literature study), lesion: several types, types named in the paper, dosed 76 weeks, study length 76 weeks): 731 mg/kg/day (inactive) | carcinogen call (mouse, strain B6C3F1, females, oral dosing, site: liver, lesion: hepatoma, dosed 76 weeks, study length 76 weeks): negative (inactive) | TD50 (mouse, strain B6C3F1, females, oral dosing, site: lung, lesion: adenoma, dosed 76 weeks, study length 76 weeks): 2330 mg/kg/day (inactive) | TD50 (mouse, strain B6C3F1, males, oral dosing, site: any site (literature study), lesion: several types, types named in the paper, dosed 76 weeks, study length 76 weeks): 252 mg/kg/day (inactive) | TD50 (mouse, strain B6C3F1, males, oral dosing, site: liver, lesion: hepatoma, dosed 76 weeks, study length 76 weeks): 680 mg/kg/day (inactive) | TD50 (mouse, strain B6C3F1, males, oral dosing, site: lung, lesion: adenoma, dosed 76 weeks, study length 76 weeks): 1050 mg/kg/day (inactive)

CC(C)C[C@H]1C(=O)N2CCC[C@H]2[C@]2(O)O[C@](NC(=O)[C@@H]3C=C4c5cccc6[nH]c(Br)c(c56)C[C@H]4N(C)C3)(C(C)C)C(=O)N12
TD50 (mouse, strain OF1, females, in feed, site: any site (literature study), lesion: several types, types named in the paper, dosed 74 weeks, study length 74 weeks): 175 mg/kg/day (inactive) | carcinogen call (mouse, strain OF1, females, in feed, site: liver, lesion: neoplastic nodule, dosed 74 weeks, study length 74 weeks): negative (inactive) | carcinogen call (mouse, strain OF1, females, in feed, site: lung, lesion: adenoma, dosed 74 weeks, study length 74 weeks): negative (inactive) | TD50 (mouse, strain OF1, males, in feed, site: any site (literature study), lesion: several types, types named in the paper, dosed 74 weeks, study length 74 weeks): 68 mg/kg/day (inactive) | TD50 (mouse, strain OF1, males, in feed, site: liver, lesion: neoplastic nodule, dosed 74 weeks, study length 74 weeks): 308 mg/kg/day (inactive) | TD50 (mouse, strain OF1, males, in feed, site: lung, lesion: adenoma, dosed 74 weeks, study length 74 weeks): 618 mg/kg/day (inactive) | TD50 (rat, strain OFA (Sprague-Dawley derived), females, in feed, site: uterus, lesion: malignant tumor, dosed 100 weeks, study length 100 weeks): 117 mg/kg/day | TD50 (rat, strain OFA (Sprague-Dawley derived), females, in feed, site: uterus, lesion: several types, types named in the paper, dosed 100 weeks, study length 100 weeks): 33.7 mg/kg/day

ClCOCCCCCCOCCl
carcinogen call (mouse, strain Ha/ICR, females, i.p., site: abdomen, lesion: sarcoma, dosed 81 weeks, study length 81 weeks): negative (inactive)
